Experimental data from patent US20230339882A1, “SHP2 INHIBITOR AND COMPOSITION AND APPLICATION THEREOF” (Betta Pharmaceuticals Co., Ltd., priority 2020, published 2023).

What was measured:
leukemia cells MV-4-11 = assay: Cell proliferation assay, CELL TITER-GLO (CTG) luminescence, MV-4-11; format: cell-based
In short: (§1)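 NCI-H358 (2000 cells/well, ultra-low-attachment plates) and MV-4-11 cells were dosed 24 h after seeding at 1000 nM down to 0.1524 nM (3-fold steps). Viable-cell ATP was read by CellTiter-Glo luminescence after 96 h for NCI-H358 and 120 h for MV-4-11. IC50 came from a variable-slope fit of inhibition versus the 0 nM control.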

[1] = In vitro metabolic stability in liver microsomes, rat; format: in vitro ADME; details: for microsomal CLint at 2 µM: pH 7.3, read-out: CLint (µL/min/mg protein) rat
Procedure: (§2) Example D: In Vitro Metabolic Stability of Human and Rat Liver Microsomes Test Buffer Preparation
(§3) Dissolve 1900 mg of MgCl2 in 400 mL of ultrapure water.
(§4) Dissolve 17.42 g K2HPO4 and 13.65 g KH2PO4 into 1000 mL of ultrapure water, respectively. Mix a certain proportion of K2HPO4 and KH2PO4 to adjust the pH to 7.30 ± 0.10.
(§5) Prepare a solution of 10 ng/mL labetalol and 10 ng/mL glyburide in acetonitrile and store at 4° C.
(§6) Prepare 10 mM verapamil (positive control) and test article stock solutions in DMSO. Then, with MeOH/ACN/H2O solution (1:1:2 by volume), diluted to 50 µM and 200 µM working solutions, respectively.
(§7) experiment procedure: • 1) Add 40 µL MgCl2 and 306 µL PBS to 96 wells (set blank control group, positive control group, test compound sample group, and negative control group at the same time) • 2) Add 4 µL of compound working solution to each well (4 µL of PBS buffer for blank group) (Note: the final concentration of DMSO volume in the system is ≤ 0.5%) • 3) Add 10 µL of liver microsomes (concentration: 20 mg/mL) to each well, mix well, and pre-incubate at 37° C. for 10 minutes. • 4) Add 40 µL of 10 mM NADPH working solution to each well to start the reaction (add equal volume of PBS buffer for blank control group and negative control group respectively), the total reaction volume is 400 µL. • 5) Take out 50 µL samples from the above reaction solution at 0, 5, 15, and 45 minutes, and add 400 µL of reaction stop solution to stop the reaction • 6) Shake the sample after the termination of the reaction on a shaker for 5 minutes. • 7) Centrifuge the sample at 3200 rcf for 10 minutes. After the centrifugation is complete, transfer 50 µL of the supernatant to 200 µL of H2O for dilution for LC-MS/MS analysis.
(§8) Calculations of t½ and CLint are performed using the first-order kinetic equations: […]
(§9) where k represents the elimination constant, calculated from a log-linear plot of percentage remaining versus time. t½ represents half-life. Cprotein is the concentration of liver microsomes.

[2] = In vitro metabolic stability in liver microsomes, dog; format: in vitro ADME; details: for microsomal CLint at 2 µM: pH 7.3
[3] = system: lung cancer cells NCI-H358; assay: Cell proliferation assay, CELL TITER-GLO (CTG) luminescence, NCI-H358; format: cell-based; details: cultured for 96 hrs
In short: as §1

[4] = In vitro metabolic stability in liver microsomes, mouse; format: in vitro ADME; details: for microsomal CLint at 2 µM: pH 7.3, read-out: CLint (µL/min/mg protein) mouse
SHP2 = SHP2 (Homo sapiens (Human), UniProt Q06124); assay: SHP2 allosteric inhibitory enzyme activity assay (DiFMUP fluorescence); format: biochemical; details: read-out: SHP2 enzymatic activity IC50
In short: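 Human SHP2 (0.2 ng) preincubated 1 h at room temperature with 25 µM activating peptide IRS1_pY1172(dPEG8)pY1222 and compound (10-point series from 10 µM) in HEPES/NaCl/KCl/BRIJ-35/EDTA/DTT buffer. DiFMUP then added for 1 h; fluorescence at ex 340/em 450 nm, normalized to no-enzyme and no-inhibitor controls, IC50 from variable-slope fit.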

[5] = In vitro metabolic stability in liver microsomes, monkey; format: in vitro ADME; details: for microsomal CLint at 2 µM: pH 7.3, read-out: CLint (µL/min/mg protein) monkey
[6] = In vitro metabolic stability in liver microsomes, human; format: in vitro ADME; details: for microsomal CLint at 2 µM: pH 7.3, read-out: CLint (µL/min/mg protein) human
Procedure: as §2, §3, §4, §5, §6, §7, §8, §9

[7] = Homo sapiens, MV4-11, cultured for 120 hrs
[8] = Homo sapiens, NCI-H358, ultra-low adsorption plate

Row | SMILES | IC50 (SHP2) | IC50 (leukemia cells MV-4-11; [7]) | microsomal CLint at 2 µM [1] | microsomal CLint at 2 µM ([2]; dog, microsomes) | IC50 [3, 8] | microsomal CLint at 2 µM [4] | microsomal CLint at 2 µM [5] | microsomal CLint at 2 µM [6] | CLint (µL/min/mg protein) dog ([2]; dog, microsomes) | IC50 (leukemia cells MV-4-11; cultured for 120 hrs) | CLint (µL/min/mg protein) rat [1] | CLint (µL/min/mg protein) dog ([2]; dog liver microsomes) | IC50 ([3]; ultra-low adsorption plate) | CLint (µL/min/mg protein) mouse [4] | CLint (µL/min/mg protein) monkey [5] | CLint (µL/min/mg protein) human [6]
1 | N[C@@H]1c2ccccc2CC12CCN(c1ncc(C#CCOc3cccc(C(F)(F)F)c3)nc1CO)CC2 [Compound A13] | 5.8 nM |  |  |  |  |  |  |  |  | 18 nM | 2.4 µL/min/mg protein | 0.9 µL/min/mg protein | 28 nM | 6.6 µL/min/mg protein | 2.6 µL/min/mg protein | 6.3 µL/min/mg protein
2 | NC(=O)c1ccc(OCC#Cc2cnc(N3CCC4(CC3)Cc3ccccc3[C@H]4N)c(CO)n2)cc1 [Compound A17, (S)-4-((3-(5-(1-amino-1,3-dihydrospiro[indene-2,4′-piperidine]-1′-yl)-6-(hydroxymethyl)pyrazin-2-yl)prop-2-yn-1-yl)oxy) benzamide] | 2.4 nM |  |  |  |  |  |  |  |  | 1 nM | 15.9 µL/min/mg protein | 10.6 µL/min/mg protein | 1.5 nM | 12.0 µL/min/mg protein | 5.0 µL/min/mg protein | 0.4 µL/min/mg protein
3 | N[C@@H]1c2ccccc2CC12CCN(c1ncc(C#CCOc3ccc4c(c3)NC(=O)CC4)nc1CO)CC2 [Compound A22] | 4.6 nM |  |  |  |  |  |  |  |  | 2.9 nM | 20.7 µL/min/mg protein | 13.6 µL/min/mg protein | 2.3 nM | 13.2 µL/min/mg protein | 21.0 µL/min/mg protein | 1.6 µL/min/mg protein
4 | Nc1cc(OCC#Cc2cnc(N3CCC4(CC3)Cc3ccccc3[C@H]4N)c(CO)n2)ccn1 [Compound A26, (S)-(3-(1-amino-1,3-dihydrospiro [indene-2,4′-piperidine]-1′-yl)-6-(3-((2-Aminopyridin-4-yl)oxy)prop-1-yn-1-yl)pyrazin-2-yl) methanol] | 1.6 nM | 1.8 nM | 9 µL/min/mg | 1.2 µL/min/mg | 5.2 nM | 9.8 µL/min/mg | 6.3 µL/min/mg | 2.2 µL/min/mg |  |  |  |  |  |  |  | 
5 | NC(=O)c1cccc(OCC#Cc2cnc(N3CCC4(CC3)Cc3ccccc3[C@H]4N)c(CO)n2)c1 [Compound A27, (S)-3-((3-(5-(1-amino-1,3-dihydrospiro[indene-2,4′-piperidine]-1′-yl)-6-(hydroxymethyl)pyrazin-2-yl)prop-2-yn-1-yl)oxy)benzamide] | 1.9 nM | 1.4 nM | 7.5 µL/min/mg | 4.8 µL/min/mg | 1.5 nM | 17.7 µL/min/mg | 15.9 µL/min/mg | 4 µL/min/mg |  |  |  |  |  |  |  | 
6 | N[C@@H]1c2ccccc2CC12CCN(c1ncc(C#CCNC(=O)c3ccccc3)nc1CO)CC2 [Compound A45] | 4.7 nM |  |  |  |  |  |  |  |  | 20 nM | 7.9 µL/min/mg protein | 9.6 µL/min/mg protein | 40 nM | 6.3 µL/min/mg protein | 3.2 µL/min/mg protein | 5.2 µL/min/mg protein
7 | N[C@@H]1c2ccccc2CC12CCN(c1ncc(C#CCNc3ncco3)nc1CO)CC2 [Compound A60] | 1.6 nM |  |  |  |  |  |  |  |  | 13 nM | 10.4 µL/min/mg protein | 10.8 µL/min/mg protein | 41 nM | 15.1 µL/min/mg protein | 16.9 µL/min/mg protein | 9.9 µL/min/mg protein

Continued, in another order:

Row | IC50 (SHP2) | IC50 (leukemia cells MV-4-11; [7]) | microsomal CLint at 2 µM [1] | microsomal CLint at 2 µM ([2]; dog, microsomes) | IC50 [3, 8] | microsomal CLint at 2 µM [4] | microsomal CLint at 2 µM [5] | microsomal CLint at 2 µM [6] | CLint (µL/min/mg protein) dog ([2]; dog, microsomes) | SMILES | IC50 (leukemia cells MV-4-11; cultured for 120 hrs) | CLint (µL/min/mg protein) rat [1] | CLint (µL/min/mg protein) dog ([2]; dog liver microsomes) | IC50 ([3]; ultra-low adsorption plate) | CLint (µL/min/mg protein) mouse [4] | CLint (µL/min/mg protein) monkey [5] | CLint (µL/min/mg protein) human [6]
8 | 1.7 nM |  |  |  |  |  |  |  | 5.2 µL/min/mg protein | NC(=O)c1ccc(OCC#Cc2cnc(N3CCC4(CC3)Cc3ccccc3[C@H]4N)c(CO)n2)cc1F [Compound A50, (S)-4-((3-(5-(1-amino-1,3-dihydrospiro[indene-2,4′-piperidin]-1′-yl)-6-(hydroxymethy 1)pyrazin-2-yl)prop-2-yn-1-yl)oxy)-2-fluorobenzamide] | 2.2 nM | 11.4 µL/min/mg protein |  | 3.3 nM | 3.1 µL/min/mg protein | 5.9 µL/min/mg protein | 7.4 µL/min/mg protein
9 | 2.4 nM |  |  |  |  |  |  |  | 22.2 µL/min/mg protein | N[C@@H]1c2ccccc2CC12CCN(c1ncc(C#CCOc3ccc4c(c3)CNC4=O)nc1CO)CC2 [Compound A51, (S)-5-((3-(5-(1-amino-1,3-dihydrospiro[indene-2,4′-piperidin]-1′-yl)-6-(hydroxymethy 1)pyrazin-2-yl)prop-2-yn-1-yl)oxy)isoindolin-1-one] | 1 nM | 12.5 µL/min/mg protein |  | 0.8 nM | 16.7 µL/min/mg protein | 26.2 µL/min/mg protein | 9.9 µL/min/mg protein
10 | 0.7 nM | 1.6 nM | 12.8 µL/min/mg | 12.8 µL/min/mg | 2.2 nM | 10.4 µL/min/mg | 13.7 µL/min/mg | 12.1 µL/min/mg |  | NC(=O)c1ccc(OCC#Cc2cnc(N3CCC4(CC3)Cc3ccccc3[C@H]4N)c(CO)n2)cc1Cl [Compound A54, (S)-4-((3-(5-(1-amino-1,3-dihydrospiro[indene-2,4′-piperidin]-1′-yl)-6-(hydroxymethyl)pyrazin-2-yl)prop-2-yn-1-yl)oxy)-2-chlorobenzamide] |  |  |  |  |  |  | 
11 | 2.7 nM | 9.6 nM | 24.7 µL/min/mg | 20.7 µL/min/mg | 26 nM | 14.3 µL/min/mg | 20 µL/min/mg | 14.7 µL/min/mg |  | CN(CC#Cc1cnc(N2CCC3(CC2)Cc2ccccc2[C@H]3N)c(CO)n1)c1ccc(C(N)=O)cc1 [Compound A55, (S)-4-((3-(5-(1-amino-1,3-dihydrospiro[indene-2,4′-piperidin]-1′-yl)-6-(hydroxymethyl)pyrazin-2-yl)prop-2-yn-1-yl)(methyl)amino)benzamide] |  |  |  |  |  |  | 
12 | 2.8 nM | 10.4 nM | 14 µL/min/mg | 3.1 µL/min/mg |  | 9 µL/min/mg | 1 µL/min/mg | 2.7 µL/min/mg |  | N[C@@H]1c2ccccc2CC12CCN(c1ncc(C#CCOc3ccc(C(O)C(F)(F)F)cc3)nc1CO)CC2 (stereo partly drawn) [Compound A80, 1-(4-((3-(5-((S)-1-amino-1,3-dihydrospiro[indene-2,4′-piperidin]-1′-yl)-6-(hydroxymethyl)pyrazin-2-yl)prop-2-yn-1-yl)oxy)phenyl)-2,2,2-trifluoroethane-1-ol] |  |  |  |  |  |  | 
13 |  | 9 nM | 5.3 µL/min/mg | 3.9 µL/min/mg | 40 nM | 10.5 µL/min/mg | 4.5 µL/min/mg | 8.6 µL/min/mg |  | NC(=O)Cn1cc(OCC#Cc2cnc(N3CCC4(CC3)Cc3ccccc3[C@H]4N)c(CO)n2)cn1 [Compound A82, (S)-2-(4-((3-(5-(1-amino-1,3-dihydrospiro[indene-2,4′-piperidin]-1′-yl)-6-(hydroxymethyl)pyrazin-2-yl)prop-2-yn-1-yl)oxy)-1H-pyrazol-1-yl)acetamide] |  |  |  |  |  |  | 
